One data set has as its system T1, E. coli ΔtolC.
T1 construct: BW25113 ΔtolC efflux-deficient tolC deletion strain
Put plainly: microbe, parasite or virus in culture. Details: resazurin microtiter MIC90 in CAMHB, aerobic, 2-fold dilutions, fluorescence; turnover below 10% of control. To be noted: Escherichia coli, 5 h; MIC90, antibiotic alone, aerobic; read-out: MIC90 against E. coli ∆tolC under aerobic conditions (µg/mL) / Alone. The procedure:
The MIC was determined using the colorimetric resazurin microtiter assay. Experiments were performed in 96-well plate format with a 100 μl final volume. Briefly, a suspension of an E. coli strain of interest was prepared in CAMHB (BD) at an A600 of 0.001. When required, boosters or arabinose were added to the suspension, and MTZ or NFZ antibiotics were tested in a concentration gradient through serial 2-fold dilutions. After 5 h of incubation at 37 °C, 10 μl of resazurin 12.5% was added to each well, and an additional incubation was carried out for 1.5 h. Fluorescence was measured using a Fluostar Optima BMG Labtech (Ex: 530 nm; Em: 590 nm). Values were converted to resazurin turnover based on minimal (no bacteria added to the medium) and maximal (no antibiotic added) fluorescence values. MIC90 values were determined when resaruzin turnover was ˂10% of control.

In a further data set the target is T2, MarR (Escherichia coli, UniProt P27245).
T2 construct: recombinant His-tagged MarR (pET15b, gene from BW25113)
Put plainly: thermal shift assay with Kd (ΔTm […] °C); EMSA release of marO DNA (EC50 […]). Type of data set: binding. Background: A gel shift assay detects complexes by their altered migration in electrophoresis.

The subject of data set [1] is MarR (His-tagged) (Escherichia coli BW25113). Put plainly: EMSA. To be noted: EMSA: His-MarR 5 uM preincubated with BDM76441 15 min 25 C, then 100 nM marO 15 min 25 C (10 ul); 6% DNA retardation gel, 0.5x TBE, 150 V 45 min; binding ….
The target in data set [2] is T3, NfsA (Escherichia coli, UniProt P17117).
T3 construct: recombinant His-tagged NfsA (pET28, gene from BW25113)
T3 sequence (P17117 1-240): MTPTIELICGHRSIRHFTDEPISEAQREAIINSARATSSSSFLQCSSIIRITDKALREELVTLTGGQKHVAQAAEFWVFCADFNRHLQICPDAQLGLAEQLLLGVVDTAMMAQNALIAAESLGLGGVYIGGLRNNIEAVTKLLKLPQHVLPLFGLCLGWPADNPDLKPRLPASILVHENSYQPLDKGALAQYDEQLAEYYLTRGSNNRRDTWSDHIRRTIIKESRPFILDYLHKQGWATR
Put plainly: UHPLC-MS turnover by purified NfsA with NADPH consumption and GSH trapping. Type of data set: biochemical.

In data set [3] the target is T3, NfsA. Put plainly: reduction by purified recombinant NfsA (2-electron reduction). Type of data set: biochemical.
Data set [4] deals with T3, NfsA. Put plainly: UHPLC-MS of NADPH consumption and NADP+ production by purified NfsA. Type of data set: biochemical.
Data set [5] concerns the target T3, NfsA. Put plainly: EPR detection of MTZ radical anion formed by purified NfsA (1-electron reduction); NADPH consumption by UHPLC-MS. Type of data set: biochemical.

Converted amounts (≈) assume the structure as drawn.

T2 sequence (P27245 whole entry): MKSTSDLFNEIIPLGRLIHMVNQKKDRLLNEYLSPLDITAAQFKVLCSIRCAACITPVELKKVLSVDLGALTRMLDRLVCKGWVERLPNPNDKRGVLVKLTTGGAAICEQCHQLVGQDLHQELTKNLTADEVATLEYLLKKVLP

With `Cc1ncc([N+](=O)[O-])n1CCCO` [Ternidazole], the MIC90 in the data set on E. coli ΔtolC is above 500 µg/mL.
Consider `Cc1ncc([N+](=O)[O-])n1C` [Dimetridazole], for which the MIC90 in the data set on E. coli ΔtolC was above 500 µg/mL.
On the same count and under the same terms, the result for `Cc1ncc([N+](=O)[O-])n1CC(C)O` (centres unmarked) [Secnidazole] reads above 500 µg/mL.
As a reminder, the Kd is the constant that tells how readily two partners part at equilibrium. For the compound `O=C(Nc1ccc(I)cc1C(=O)O)c1cccs1` [BDM76441], the Kd on MarR is 9.8 ± 1.6 µM.
Take `O=C(Cn1ccnc1[N+](=O)[O-])NCc1ccccc1` [Benznidazole]: the MIC90 in the data set with E. coli ΔtolC turned out to be 62.5 µg/mL (≈ 240 µM).
Broadly, the IC50 is the concentration needed to halve the response being measured. marO (marRAB promoter PCR fragment) displayed an IC50 in data set [1] of 38 µM.
Regarding `NC(=O)N/N=C/c1ccc([N+](=O)[O-])o1` [NFZ, nitrofurazone], the MIC90 with E. coli ΔtolC worked out at 15.6 µg/mL (≈ 78.7 µM). Moreover, the “UHPLC-MS turnover by purified NfsA with NADPH consumption and GSH trapping” value at NfsA [2] is recorded as “with purified recombinant NfsA, we observed a rapid biotransformation of NFZ accompanied by a conversion of NADPH to NADP+”.
Take `Cc1ncc([N+](=O)[O-])n1CC(O)CCl` (centres unmarked) [Ornidazole]: the MIC90 with E. coli ΔtolC is above 500 µg/mL.
Turning to `CC1=CC(=O)c2ccccc2C1=O` [menadione], the “reduction by purified recombinant NfsA (2-electron reduction)” value on NfsA [3] was “confirmed that NfsA could reduce both menadione (2-electron reduction) and ferrocyanide (1-electron reduction)”.
In the case of `NC(=O)C1=CN([C@@H]2O[C@H](COP(=O)(O)OP(=O)(O)OC[C@H]3O[C@@H](n4cnc5c(N)ncnc54)[C@H](OP(=O)(O)O)[C@@H]3O)[C@@H](O)[C@H]2O)C=CC1` [NADPH], the “UHPLC-MS of NADPH consumption and NADP+ production by purified NfsA” value at NfsA [4] is given as “rapid biotransformation of NFZ accompanied by a conversion of NADPH to NADP+ as measured by UHPLC-MS analysis”.
With `Cc1ncc([N+](=O)[O-])n1CCO` [MTZ, metronidazole], at NfsA [5], the “EPR detection of MTZ radical anion formed by purified NfsA (1-electron reduction)” value is given as “these results confirmed the formation of MTZ radical anions by NfsA under aerobic conditions”. The MIC90 with E. coli ΔtolC was above 500 µg/mL.
For `O=[N+]([O-])c1cncn1CCN1CCOCC1` [Nimorazole], the MIC90 with E. coli ΔtolC is above 500 µg/mL.

The values are drawn from publication PMC11259696, “Small molecule MarR modulators potentiate metronidazole antibiotic activity in aerobic E. coli by inducing activation by the nitroreductase NfsA” (The Journal of Biological Chemistry, 2024).
